Measurements published in patent publication US20230181599A1, “PROGESTOGEN FORMULATIONS AND USES THEREOF” (Shenzhen Evergreen Therapeutics Co., Ltd, priority 2020, published 2023).

How the values were obtained:
Body weight of COPD rats = assay type: in vivo, Wistar rats; settings: at 24 weeks; for weight increase: vs model group / BUD alone groups
Excerpt: Inhibition of weight increase was lower in 17-HPC group than in the same dose BUD group.

[1] = Seven-day inhalation toxicity study in rats (GLP); assay type: in vivo, Sprague-Dawley rats; settings: both sexes, Sprague-Dawley, rat, in vivo, inhaled or intranasal; inhalation, 7 consecutive days, rats; preliminary results; read-out: no observed adverse effect level (NOAEL)
Description: (§1) A 7-day inhalation toxicity study in rats was conducted under GLP conditions. In this study, aerosolized 17-HPC was administered to Sprague-Dawley rats (10/sex/group) at 8, 24, and 72 mg/kg/day for 7 consecutive days. A control group of rats was dosed with aerosolized vehicle. Animals were observed daily for clinical signs. Body weight and food consumption were recorded at pretest, and then on Days 1, 4, and 7. In order to evaluate reversibility of 17-HPC treatment, a satellite rat group (5/sex/group) was dosed by inhalation at 72 mg/kg/day for 7 days, and then was sacrificed on Day 14. Except for the rats in the satellite group, all animals were sacrificed on Day 8. Hematology and biochemistry examinations were performed at the end of the study. Organ weight, gross pathology, and histopathology evaluations were performed.
(§2) Histopathological examinations on the animal tissues from the 24 and 72 mg/kg/day groups have not been completed prior to submission of this pre-IND package.
(§3) Based on the preliminary results of this study, inhalational administration of 17-HPC at 8 mg/kg/day (48 mg/m^2/day) was determined as the no observed adverse effect level (NOAEL) The proposed clinical study is a single dose inhalation study starting at a dose level of 300 μg, which is approximately 6 μg/kg/day (222 μg/m^2/day) based on a human body weight of 50 kg/person. Therefore, the NOAEL generated in this inhalation study is approximately 216 times greater than the proposed initial clinical dose based on body surface areas.

Sprague-Dawley rats = test: Seven-day inhalation toxicity study in rats (GLP); assay type: in vivo
Description: as §1, §2, §3

[2] = target: ABCB1 efflux transporters (Homo sapiens, UniProt P08183); settings: Bloise, E., et al. 2016; cited from earlier work
Chain of ABCB1 efflux transporters (P08183 whole entry): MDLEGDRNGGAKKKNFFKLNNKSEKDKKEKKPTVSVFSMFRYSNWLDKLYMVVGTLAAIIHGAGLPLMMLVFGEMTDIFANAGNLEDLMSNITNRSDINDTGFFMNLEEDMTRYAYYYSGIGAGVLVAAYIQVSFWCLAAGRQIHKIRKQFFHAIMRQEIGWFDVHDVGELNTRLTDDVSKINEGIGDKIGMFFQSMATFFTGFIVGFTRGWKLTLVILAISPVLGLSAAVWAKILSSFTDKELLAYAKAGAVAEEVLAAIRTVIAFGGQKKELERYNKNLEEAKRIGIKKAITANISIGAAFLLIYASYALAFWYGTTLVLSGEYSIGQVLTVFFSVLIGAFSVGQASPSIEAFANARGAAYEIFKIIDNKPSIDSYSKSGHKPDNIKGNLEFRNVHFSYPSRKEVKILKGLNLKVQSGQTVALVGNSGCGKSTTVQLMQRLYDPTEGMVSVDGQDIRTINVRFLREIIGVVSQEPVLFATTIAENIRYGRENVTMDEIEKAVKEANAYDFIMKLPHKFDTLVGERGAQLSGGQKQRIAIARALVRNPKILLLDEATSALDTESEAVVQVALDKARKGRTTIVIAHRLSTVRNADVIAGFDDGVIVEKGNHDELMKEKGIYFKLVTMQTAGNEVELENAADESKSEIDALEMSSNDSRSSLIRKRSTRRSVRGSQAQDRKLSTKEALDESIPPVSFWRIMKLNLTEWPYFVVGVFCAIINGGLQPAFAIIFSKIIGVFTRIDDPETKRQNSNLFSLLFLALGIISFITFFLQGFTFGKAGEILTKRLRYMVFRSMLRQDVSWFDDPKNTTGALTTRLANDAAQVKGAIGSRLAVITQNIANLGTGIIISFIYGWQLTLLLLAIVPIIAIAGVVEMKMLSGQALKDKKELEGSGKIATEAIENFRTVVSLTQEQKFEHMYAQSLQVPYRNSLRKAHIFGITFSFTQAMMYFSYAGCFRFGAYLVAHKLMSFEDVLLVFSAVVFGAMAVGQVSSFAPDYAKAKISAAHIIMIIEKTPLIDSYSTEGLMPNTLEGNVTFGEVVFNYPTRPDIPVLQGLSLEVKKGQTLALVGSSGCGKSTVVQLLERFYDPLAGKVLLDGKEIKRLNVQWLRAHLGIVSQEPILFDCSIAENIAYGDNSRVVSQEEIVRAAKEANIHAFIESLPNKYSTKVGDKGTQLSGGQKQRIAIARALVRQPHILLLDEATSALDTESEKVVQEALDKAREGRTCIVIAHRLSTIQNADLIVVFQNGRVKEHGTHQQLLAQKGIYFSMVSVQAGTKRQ

[3] = system: smoke exposure-induced COPD rats; test: Differential count in BALF (neutrophils) of COPD rats; assay type: in vivo, Wistar rats; settings: CS-exposed rats, nebulized drug
Description: (§4) Seventy-two Wistar rats were randomly divided into the blank control group, model group, 17-HPC (0.5 mg/ml, 0.25 mg/ml and 0.1 mg/ml) groups, BUD (0.5 mg/ml and 0.1 mg/ml) groups, and combination treatment (0.5 mg/ml BUD+0.25 mg/ml 17-HPC and 0.1 mg/ml BUD+0.25 mg/ml 17-HPC) groups. Drug concentration is the nebulized solution concentration. Lung function (forced vital capacity) of rats was measured using the small animal spirometer, and differential count in the BALF was determined under the microscope. Serum and BALF cytokine (IL-6, IL-17, TNF-α and IL-β) levels were measured by ELISA. Inflammatory cell infiltration area and MLI in rat lung tissues were determined by HE staining. […] The efficacy of high dose BUD was equivalent to that of high dose BUD+17-HPC.

[4] = system: smoke exposure-induced COPD rats; test: Lung function (FEV0.2/FVC, small animal spirometer) in smoke exposure-induced COPD rats; assay type: in vivo, Wistar rats; settings: CS-exposed rats, nebulized drug; compared with the model group
Description: (§5) Seventy-two Wistar rats were randomly divided into the blank control group, model group, 17-HPC (0.5 mg/ml, 0.25 mg/ml and 0.1 mg/ml) groups, BUD (0.5 mg/ml and 0.1 mg/ml) groups, and combination treatment (0.5 mg/ml BUD+0.25 mg/ml 17-HPC and 0.1 mg/ml BUD+0.25 mg/ml 17-HPC) groups. Drug concentration is the nebulized solution concentration. Lung function (forced vital capacity) of rats was measured using the small animal spirometer, and differential count in the BALF was determined under the microscope. Serum and BALF cytokine (IL-6, IL-17, TNF-α and IL-β) levels were measured by ELISA. Inflammatory cell infiltration area and MLI in rat lung tissues were determined by HE staining. Lung function of rats was measured using the small animal spirometer after 24 weeks of CS exposure.

[5] = PK of oral formulations of PR2005 in female dogs, relative bioavailability vs intramuscular injection (MAKENA); assay type: in vivo
Excerpt: This study determined the pharmacokinetic parameters of the test drug PR2005 (also referred to herein as 17-HPC) in different formulations after oral gavage or capsule administrations in dogs. This study further determined the relative bioavailability of the test drug PR2005 in each formulation, compared to intramuscular injection solution (MAKENA®).
PK parameters were estimated, including maximum plasma drug concentration (Cmax), time to reach Cmax (Tmax), time delay in absorption process (Tlag), area under the plasma concentration-time curve from time 0 to the last quantifiable data point (AUClast), area under the plasma concentration-time curve from time zero to infinity (AUCinf), plasma half-life (t1/2), and apparent plasma clearance (CL/F), apparent volume of distribution (Vz/F). All these parameters were computed using standard non-compartmental methods of analysis. Geometric mean and CV % are reported for most of PK parameters, and median with range is reported for Tmax and Tlag. Plasma PR2005 PK data was analyzed in Pheonix WinNonLin 8.1 (Certara USA, Inc.).
Log-transformed values of AUCinf were analyzed using a linear mixed-effects model. Least squares mean (LSM) for each treatment group and 90% confidence interval (CI) for the mean of the pairwise differences were estimated using this model. After back transformation from the log scale, estimates of geometric LSM and 90% CI for the ratio of means were calculated. Relative bioavailability (Fr %) was calculated as the ratio of dose normalized geometric least square mean (LSM) for test formulation and IM solution: […]
PR2005 250 mg intramuscular injection: 250 mg 17-HPC, 28.6% v/v of castor oil (CAS 8001-79-4), 46% v/v of benzyl benzoate (CAS 120-51-4), and 2% v/v of benzyl alcohol.
PR2005 250 mg oral (powder in capsules): 20% w/w of 17-HPC and 80% w/w mannitol. The particle size of 17-HPC is from about 2 to about 10 μm.
PR2005 250 mg Suspension #1: 30% w/w of 17-HPC and 70% castor oil (CAS 8001-79-4). The particle size of 17-HPC is from about 5 to about 30 μm.
PR2005 250 mg and 750 mg Solution #3: 30% w/w of 17-HPC, 63% w/w of benzyl benzoate (CAS 120-51-4), and 7% w/w of macrogolglycerol ricinoleate (CAS 61791-12-6).
The test items were administered on the first day of each trial. Each animal group was rotated through each trial with at least 4 days between trials and a […] 7-day washout between each test item administration.

[6] = system: smoke exposure-induced COPD rats; test: HE staining of lung tissue: inflammatory cell infiltration area and MLI in COPD rats; assay type: in vivo, Wistar rats
Description: as §4

[7] = system: TNF-α, IL-1β, IL-6 and IL-17; test: Serum and BALF cytokine levels by ELISA in COPD rats; assay type: in vivo, Wistar rats; settings: different doses, aside from the low dose (0.1 mg/ml) 17-HPC group
Description: as §5, with “To examine the in vitro and in vivo efficacy of 17-HPC inhalation in chronic obstructive pulmonary disease (COPD) rats, a rat model of COPD was established by exposing Wistar rats to CS for 1 hour every day for a total of 180 days. Seventy-two” for “Seventy-two”, “staining.” for “staining. Lung function of rats was measured using the small animal spirometer after 24 weeks of CS exposure.”

[8] = Saxton D J et al. 2004; cited from earlier work
[9] = 250 mg intramuscular injection, geometric mean

SMILES | weight increase (Body weight of COPD rats) | NOAEL at 7 days [1] [mg/kg/day] | no observed adverse effect level (NOAEL), body surface area (Sprague-Dawley rats; inhalation, 7 days, rats) [mg/m^2/day] | NOAEL relative to the proposed initial clinical dose (300 μg) based on body surface areas (Sprague-Dawley rats; rat, in vivo) | pathological alterations after a 7-day recovery period (Sprague-Dawley rats; rat, in vivo, 72 mg/kg/day) | ABCB1 efflux transporter substrate [2] | percentage of neutrophils in rat BALF [3] | FEV0.2/FVC % [4] | Cl/F [5, 9] [L/h] | V [5, 9] [L] | half-life ([5]; female, dog, plasma, im, 250 mg intramuscular injection, geometric mean) [min] | Tmax ([5]; female, dog, plasma, im, 250 mg intramuscular injection, median) [h] | dose proportionality of Cmax and AUC, 250 to 750 mg ([5]; oral) | inflammatory cell infiltration in lung tissue sections (HE staining) ([6]; 17-HPC groups vs model rats) | MLI ([6]; aside from the 0.1 mg/ml 17-HPC group, dose-dependent) | inflammatory cell infiltration in the lung tissues ([6]; high dose 17-HPC) | TNF-α, IL-1β, IL-6 and IL-17 levels in the BALF [7] | activity when administered orally [8] | Inhibition of weight increase vs same dose BUD group (Body weight of COPD rats)
CCCC1O[C@@H]2C[C@H]3[C@@H]4CCC5=CC(=O)C=C[C@]5(C)[C@H]4[C@@H](O)C[C@]3(C)[C@]2(C(=O)CO)O1 (some centres unmarked) [BUD, budesonide] | inhibited weight increase | – | – | – | – | – | – | – | – | – | – | – | – | – | – | – | – | – | –
CCCCCC(=O)O[C@]1(C(C)=O)CC[C@H]2[C@@H]3CCC4=CC(=O)CC[C@]4(C)[C@H]3CC[C@@]21C [Solution 17-HPC, 17-[(1-Oxohexyl)oxyl]-pregn-4-ene-3,20-dione] | no difference in weight increase | 8 | 48 | approximately 216 times | no remarkable pathological alterations | substrate of ABCB1 efflux transporters | reduced the percentage of neutrophils | improved FEV0.2/FVC % in a dose-dependent manner | 35.68 | 2485 | 2900 | 48 | generally greater than dose proportional | attenuated | decreased | antagonize inflammatory cell infiltration | downregulate | inactive | lower
